This note sets out measurements from article PMC6757289, “Design and Characterization of SGK3-PROTAC1, an Isoform Specific SGK3 Kinase PROTAC Degrader” (ACS Chemical Biology, 2019).

Read-outs that look alike come from different tables or passages of the source.

Holding throughout (assay): kinase profiling panel
What all share (type): biochemical
Conditions in all cases: read-out: % Activity Remaining

One experiment has as its target EPH-A2 (Homo sapiens, UniProt P29317). The source says:
(§1) Protein kinase profiling against a Dundee panel of 140 protein kinases was undertaken at the International Centre for Protein Kinase Profiling. The result for each kinase was presented as a mean kinase activity of the reaction taken in triplicate relative to a control sample treated with DMSO. Assay conditions and abbreviations are available at http://www.kinase-screen.mrc.ac.uk.

The target in the next experiment is T1, EPH-B2 (Homo sapiens, UniProt P29323).
T1 sequence (P29323 19-1055): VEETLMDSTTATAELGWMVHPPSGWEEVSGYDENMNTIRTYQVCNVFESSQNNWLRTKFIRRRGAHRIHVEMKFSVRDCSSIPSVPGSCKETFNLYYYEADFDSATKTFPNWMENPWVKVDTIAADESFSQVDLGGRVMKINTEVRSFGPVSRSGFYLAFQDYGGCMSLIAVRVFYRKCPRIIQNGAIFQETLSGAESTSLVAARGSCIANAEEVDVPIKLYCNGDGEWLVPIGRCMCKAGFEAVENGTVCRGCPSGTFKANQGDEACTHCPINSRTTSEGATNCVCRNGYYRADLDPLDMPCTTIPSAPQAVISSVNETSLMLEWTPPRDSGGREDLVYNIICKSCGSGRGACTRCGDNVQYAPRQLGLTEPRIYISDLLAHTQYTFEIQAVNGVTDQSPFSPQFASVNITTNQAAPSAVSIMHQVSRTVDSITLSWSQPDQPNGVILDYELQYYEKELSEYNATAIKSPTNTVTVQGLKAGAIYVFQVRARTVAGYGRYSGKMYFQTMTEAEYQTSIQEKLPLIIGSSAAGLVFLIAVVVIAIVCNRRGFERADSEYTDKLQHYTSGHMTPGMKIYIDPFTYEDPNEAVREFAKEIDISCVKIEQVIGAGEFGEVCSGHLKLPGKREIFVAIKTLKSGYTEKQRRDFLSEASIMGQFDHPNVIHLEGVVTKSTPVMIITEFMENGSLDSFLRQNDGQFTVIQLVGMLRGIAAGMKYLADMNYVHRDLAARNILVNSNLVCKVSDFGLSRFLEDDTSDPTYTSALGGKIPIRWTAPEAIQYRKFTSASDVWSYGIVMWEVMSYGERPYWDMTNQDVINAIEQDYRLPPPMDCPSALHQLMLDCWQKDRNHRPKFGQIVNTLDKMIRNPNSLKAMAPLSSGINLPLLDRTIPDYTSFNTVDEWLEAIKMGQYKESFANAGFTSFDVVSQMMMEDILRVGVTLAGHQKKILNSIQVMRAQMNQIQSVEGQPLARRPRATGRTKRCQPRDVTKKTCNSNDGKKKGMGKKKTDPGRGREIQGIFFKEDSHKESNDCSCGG
From the text: as §1

The target in a further experiment is T2, EPH-B4 (Homo sapiens, UniProt P54760).
T2 sequence (P54760 16-987): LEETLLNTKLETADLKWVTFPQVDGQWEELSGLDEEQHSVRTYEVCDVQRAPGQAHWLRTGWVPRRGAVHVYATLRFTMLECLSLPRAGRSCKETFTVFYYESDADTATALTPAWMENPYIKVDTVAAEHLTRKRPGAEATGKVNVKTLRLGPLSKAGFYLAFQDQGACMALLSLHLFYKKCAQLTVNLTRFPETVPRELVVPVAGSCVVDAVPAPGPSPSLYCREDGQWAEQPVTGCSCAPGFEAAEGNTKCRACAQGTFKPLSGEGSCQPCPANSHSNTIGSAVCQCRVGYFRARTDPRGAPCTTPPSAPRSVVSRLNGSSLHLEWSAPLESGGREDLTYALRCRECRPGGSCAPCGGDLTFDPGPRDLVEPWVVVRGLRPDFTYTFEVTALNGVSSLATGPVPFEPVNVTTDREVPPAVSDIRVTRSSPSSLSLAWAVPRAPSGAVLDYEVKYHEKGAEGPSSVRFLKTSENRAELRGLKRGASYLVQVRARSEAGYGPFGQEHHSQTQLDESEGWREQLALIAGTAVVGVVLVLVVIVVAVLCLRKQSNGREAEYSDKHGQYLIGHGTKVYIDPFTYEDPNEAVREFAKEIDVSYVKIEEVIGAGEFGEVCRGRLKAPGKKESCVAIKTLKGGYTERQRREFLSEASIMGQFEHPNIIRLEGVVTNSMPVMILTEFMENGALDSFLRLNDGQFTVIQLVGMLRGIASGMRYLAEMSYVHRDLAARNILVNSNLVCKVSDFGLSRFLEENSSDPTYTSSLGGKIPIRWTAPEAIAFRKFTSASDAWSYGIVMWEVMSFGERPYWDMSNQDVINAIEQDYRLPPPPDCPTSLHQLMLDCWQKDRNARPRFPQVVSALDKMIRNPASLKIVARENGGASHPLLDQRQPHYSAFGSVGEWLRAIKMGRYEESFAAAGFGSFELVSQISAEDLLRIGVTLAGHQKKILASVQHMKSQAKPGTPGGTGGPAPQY
From the text: as §1

Another experiment deals with IR (Homo sapiens, UniProt P06213).
Chain of IR (P06213 28-1382): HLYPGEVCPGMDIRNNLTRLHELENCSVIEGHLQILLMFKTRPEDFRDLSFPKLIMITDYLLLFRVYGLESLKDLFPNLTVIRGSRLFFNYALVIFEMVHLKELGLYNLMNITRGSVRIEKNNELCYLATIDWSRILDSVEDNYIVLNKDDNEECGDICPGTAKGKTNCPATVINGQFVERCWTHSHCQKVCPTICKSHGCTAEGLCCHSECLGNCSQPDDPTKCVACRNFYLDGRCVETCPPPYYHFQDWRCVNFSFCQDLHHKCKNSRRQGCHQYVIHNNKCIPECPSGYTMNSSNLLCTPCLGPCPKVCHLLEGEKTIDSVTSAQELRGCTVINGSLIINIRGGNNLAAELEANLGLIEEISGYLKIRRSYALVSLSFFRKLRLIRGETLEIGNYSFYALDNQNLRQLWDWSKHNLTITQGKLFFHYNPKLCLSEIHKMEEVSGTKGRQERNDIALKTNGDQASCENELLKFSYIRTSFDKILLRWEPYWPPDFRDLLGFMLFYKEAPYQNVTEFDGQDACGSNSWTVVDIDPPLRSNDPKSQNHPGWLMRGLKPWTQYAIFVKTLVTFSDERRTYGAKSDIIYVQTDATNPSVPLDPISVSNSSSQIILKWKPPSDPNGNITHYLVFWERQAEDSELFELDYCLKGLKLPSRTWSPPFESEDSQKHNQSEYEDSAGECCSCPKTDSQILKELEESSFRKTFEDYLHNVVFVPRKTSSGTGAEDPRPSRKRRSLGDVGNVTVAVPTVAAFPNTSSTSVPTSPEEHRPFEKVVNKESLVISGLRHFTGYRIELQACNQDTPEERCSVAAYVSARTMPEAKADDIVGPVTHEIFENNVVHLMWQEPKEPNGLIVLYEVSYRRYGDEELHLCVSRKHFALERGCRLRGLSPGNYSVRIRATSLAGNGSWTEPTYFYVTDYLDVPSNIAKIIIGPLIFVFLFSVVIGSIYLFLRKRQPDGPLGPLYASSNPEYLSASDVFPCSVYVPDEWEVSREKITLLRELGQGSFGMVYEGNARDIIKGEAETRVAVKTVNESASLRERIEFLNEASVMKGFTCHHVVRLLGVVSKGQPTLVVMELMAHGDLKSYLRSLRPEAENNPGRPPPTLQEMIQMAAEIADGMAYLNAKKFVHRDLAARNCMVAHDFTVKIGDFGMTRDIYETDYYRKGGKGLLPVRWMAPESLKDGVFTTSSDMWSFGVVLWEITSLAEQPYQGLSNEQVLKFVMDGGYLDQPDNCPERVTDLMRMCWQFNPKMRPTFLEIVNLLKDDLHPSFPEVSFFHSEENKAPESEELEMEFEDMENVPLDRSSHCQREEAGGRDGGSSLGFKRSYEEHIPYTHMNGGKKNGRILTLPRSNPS
From the text: as §1

The target in the next experiment is PIM3 (Homo sapiens, UniProt Q86V86).
From the text: as §1

The next experiment has as its target T3, SGK1 (Homo sapiens, UniProt O00141).
T3 sequence (O00141 1-431): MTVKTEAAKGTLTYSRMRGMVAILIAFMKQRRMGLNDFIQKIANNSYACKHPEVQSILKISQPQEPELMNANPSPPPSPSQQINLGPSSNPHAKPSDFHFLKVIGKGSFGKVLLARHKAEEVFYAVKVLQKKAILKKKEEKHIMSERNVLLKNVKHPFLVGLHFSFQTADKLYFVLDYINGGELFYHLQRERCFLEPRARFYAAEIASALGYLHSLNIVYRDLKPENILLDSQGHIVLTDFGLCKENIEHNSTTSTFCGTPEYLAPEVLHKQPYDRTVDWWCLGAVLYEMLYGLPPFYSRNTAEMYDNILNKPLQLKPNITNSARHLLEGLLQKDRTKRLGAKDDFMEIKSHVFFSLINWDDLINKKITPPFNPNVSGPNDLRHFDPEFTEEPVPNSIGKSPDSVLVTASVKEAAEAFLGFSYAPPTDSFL
From the text: as §1

Chain of EPH-A2 (P29317 24-976): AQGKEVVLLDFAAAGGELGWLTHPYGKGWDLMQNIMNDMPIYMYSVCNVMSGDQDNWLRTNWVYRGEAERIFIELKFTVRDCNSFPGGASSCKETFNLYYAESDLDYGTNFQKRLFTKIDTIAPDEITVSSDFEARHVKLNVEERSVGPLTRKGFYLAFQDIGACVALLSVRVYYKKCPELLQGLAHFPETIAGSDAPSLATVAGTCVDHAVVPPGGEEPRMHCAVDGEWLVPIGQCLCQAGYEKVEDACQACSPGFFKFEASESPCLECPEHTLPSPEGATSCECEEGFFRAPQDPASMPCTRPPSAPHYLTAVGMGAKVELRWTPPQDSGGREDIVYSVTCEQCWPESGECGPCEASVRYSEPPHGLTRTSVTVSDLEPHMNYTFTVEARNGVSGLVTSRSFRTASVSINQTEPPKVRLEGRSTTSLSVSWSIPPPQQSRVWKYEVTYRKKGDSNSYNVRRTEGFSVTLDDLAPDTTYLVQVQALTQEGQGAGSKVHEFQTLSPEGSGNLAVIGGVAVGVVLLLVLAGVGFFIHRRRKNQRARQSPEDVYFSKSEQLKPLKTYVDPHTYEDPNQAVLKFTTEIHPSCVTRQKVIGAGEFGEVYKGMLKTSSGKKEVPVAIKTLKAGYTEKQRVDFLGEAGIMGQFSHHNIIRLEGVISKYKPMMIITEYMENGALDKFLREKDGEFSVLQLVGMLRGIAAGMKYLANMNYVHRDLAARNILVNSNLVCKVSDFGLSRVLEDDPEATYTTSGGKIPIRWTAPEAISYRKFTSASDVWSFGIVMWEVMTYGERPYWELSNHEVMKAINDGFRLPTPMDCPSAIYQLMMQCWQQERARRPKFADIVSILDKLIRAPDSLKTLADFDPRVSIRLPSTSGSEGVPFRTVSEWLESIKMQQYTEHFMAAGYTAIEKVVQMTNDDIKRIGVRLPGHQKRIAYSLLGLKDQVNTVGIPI

By remaining activity is commonly meant the signal under treatment as a percentage of the control signal. On to `COc1ccc(Cl)c(S(=O)(=O)Nc2ccc(-c3nc(OC[C@H]4CNCCO4)c4c(C)n[nH]c4n3)cc2)c1` [290-R, reference compound], for which the remaining activity at 1 µM on EPH-A2 is 109%; on EPH-B2 it was 120%; at EPH-B4, 103%; at IR, 102%; on PIM3, 105%; on SGK1, 2%.

With `Cc1ccc(F)c(S(=O)(=O)Nc2ccc(-c3nc(OC[C@H]4CNCCO4)c4cn[nH]c4n3)cc2)c1` [308-R, reference compound], the remaining activity at 1 µM on EPH-A2 stood at 113%; at EPH-B2, 56%; at EPH-B4, 124%; on IR, 110%; on PIM3, 76%; on SGK1, 10%.

Regarding `Cc1ccc(F)c(S(=O)(=O)Nc2ccc(-c3nc(OC[C@H]4CN(CCCCCCOCCOCCOCC(=O)N[C@H](C(=O)N5C[C@H](O)C[C@H]5C(=O)NCc5ccc(-c6scnc6C)cc5)C(C)(C)C)CCO4)c4cn[nH]c4n3)cc2)c1` [SGK3-PROTAC1], the remaining activity at 1 µM stood at 94% at EPH-A2 (1 µM); 94% at EPH-B2 (1 µM); 107% on EPH-B4 (1 µM); 103% on IR (1 µM); 88% at PIM3 (1 µM); 34% on SGK1 (1 µM).

In the case of `Cc1ccc(F)c(S(=O)(=O)Nc2ccc(-c3nc(OC[C@H]4CN(CCCCCCOCCOCCOCC(=O)N[C@H](C(=O)N5C[C@@H](O)C[C@H]5C(=O)NCc5ccc(-c6scnc6C)cc5)C(C)(C)C)CCO4)c4cn[nH]c4n3)cc2)c1` [cisSGK3-PROTAC1], the remaining activity at 1 µM on EPH-A2 (1 µM) stood at 104%; on EPH-B2 (1 µM), 97%; at EPH-B4 (1 µM), 108%; at IR (1 µM) it was 94%; on PIM3 (1 µM), 89%; on SGK1 (1 µM) it was 51%.
